Assay results taken from patent publication US5516905A, “Antibiotic compounds and methods to treat gram-positive bacterial and mycoplasmal infections” (priority 1994, dated 1996).
In brackets after ≈: the same amount, converted by molar mass. Read-outs that look alike come from different tables or passages of the source.

What was measured:
[1] = test system: Wild-Type BS; test: Minimal inhibitory concentration vs. growth of B. subtilis; assay type: cell-based; details: Bacillus subtilis
[2] = test system: Methicillin-Resistant SA; test: Minimal inhibitory concentration vs. growth of methicillin-resistant Staphylococcus aureus; assay type: cell-based
[3] = test system: Control SA; test: Minimal inhibitory concentration vs. growth of Staphylococcus aureus (control strain); assay type: cell-based
[4] = test system: M. pulmonis strain KD735-15; test: Mycoplasmal growth inhibition on agar (colony formation, cfu); assay type: cell-based, Mycoplasma pulmonis; details: for IC99: Mycoplasmopsis pulmonis, KD73515, series 100, 50, 25, 12.5 and 6.25 μM, read-out: Concentration required to inhibit colony formation by 99%
Experimental: M. pulmonis strain KD735-15 (construction described in Bhugra and Dybvig, 1992) was propagated in mycoplasmal medium, and colony-forming units (cfu) were assessed on agar as previously described (Dybvig and Cassell, 1987). M pulmonis is a representative species which is well characterized. Other publicly available strains may also be used. For example, Mycoplasma agalactiae, ATCC 35890, Mycoplasma arthritidis ATCC 13988, Mycoplasma bovigenitalium, ATCC 14173, Mycoplasma bovirhinis, ATCC 27748, Mycoplasma bovis, ATCC 25025, Mycoplasma felis, ATCC 23391, Mycoplasma gallinaceum, ATCC 33550, Mycoplasma gallinarum, ATCC 15319, Mycoplasma gallisepticum, ATCC 15302, Mycoplasma genitalium, ATCC 33530, Mycoplasma hominis, ATCC 14027, Mycoplasma hyorhinis, ATCC 17981, Mycoplasma hyosynoviae, ATCC 25591, Mycoplasma meleagridis, ATCC 25294, Mycoplasma orale, ATCC 15539, Mycoplasma pneumoniae, ATCC 15293, Mycoplasma pullorum, ATCC 33553, Mycoplasma pulmonis, ATCC 14267, Mycoplasma putrefaciens, ATCC 15718, Mycoplasma synoviae, ATCC 25204, may also be used. The inhibitors used here were prepared as described in Wright and Brown ((1990) Pharmac. Ther. 47:447-497) and were prepared at a stock concentration of 20 mM in dimethyl sulphoxide (DMSO). Growth inhibition was examined on agar by comparing cfu obtained on medium lacking or supplemented with antibiotic. DMSO alone at concentrations as high as 1% had no effect on growth or cfu capacity of M. pulmonis.
HPUra and 25 other agents selected from a large collection of structurally related compounds (Wright and Brown, 1990, Pharmac. Ther. 47:447-497) were tested against M. pulmonis at a concentration of 200 μM as described in the Experimental procedures.

[5] = molecular target: T1, M. pulmonis peak A pol activity (Pol III); test: DNA polymerase activity assay, M. pulmonis peak A pol (Bio-Rex 70); assay type: biochemical; details: Fraction 7 from peak A; dGTP 10 μM; arylazopyrimidines reduced to hydrazino forms
T1 construct: we prepared a crude extract of M. pulmonis; endogenous in cells; host or cells: M. pulmonis (strain KD735-15 was the strain propagated)
Experimental: (§1) Fraction Va (Bio-Rex 70 chromatography): Fraction IV was diluted with column buffer containing 1% Triton X-100 to reduce the concentration of NaCl to 25 mM, and then applied to a 2 ml Bio-Rex 70 (Bio-Rad) column equilibrated in column buffer containing 1% Triton X-100+25 mM NaCl. The column was washed with 5 ml of the same buffer, and the adsorbed enzyme was eluted in two distinct peaks (designated A and B) at approximately 0.15 and 0.30M NaCl, respectively. As the top panel of the figure indicates, peak A represents the HPUra-sensitive pol activity. Peak A was pooled to generate Fraction Va.
(§2) DNA pol activity was assayed as described (Barnes et al., NuC. Acids Res., 6:1203-19 (1979)), using activated calf-thymus DNA as template primer, […] [^3 H-methyl]-dTTP as the labelled dNTP substrate, and dATP, dCTP, and dGTP at 25 μM each. For determination of IC50 values of TMAU and the four arylazopyrimidines (summarized in Table 2), the concentration of dGTP was reduced from 25 to 10 μM. TMAU was used directly in enzyme assays, and arylazopyrimidines were reduced prior to assay to the active, hydrazino forms, using sodium dithionite as described by Wright and Brown (1977) J. Med. Chem. 20:1181-1185.
(§3) Five compounds were used to assess the sensitivity of peak A pol activity to HPUra-type inhibitors. These were the four compounds used in the growth experiment described above (HPUra, PUra, PCPUra, and MCPUra) as well as TMAU (6-([…]) uracil), a `second generation` derivative of the HPUra prototype, equivalent in mechanism and target specificity (Wright and Brown, 1990). The IC50 value (the concentration required for 50% inhibition) of each of these agents was determined for the peak A pol activity and for an inhibitor-sensitive control enzyme, B. subtilis Pol III.

[6] = molecular target: T2, B. subtilis Pol III (Bacillus subtilis, UniProt P13267); test: DNA polymerase activity assay, B. subtilis Pol III; assay type: biochemical; details: dGTP 10 μM; arylazopyrimidines reduced to hydrazino forms
T2 construct: B. subtilis Pol III was prepared and used as described by (Barnes); made in house
Experimental: as §2, §3

[7] = molecular target: T3, exo activity of peak A pol (Bacillus subtilis, UniProt P13267); test: Exo activity of peak A enzyme on 3'-labelled ssDNA; assay type: biochemical, M. pulmonis; details: for inhibition at 50 µM: read-out: Inhibition of ssDNA digestion
T3 construct: we prepared a crude extract of M. pulmonis; endogenous in cells; host or cells: M. pulmonis (strain KD735-15 was the strain propagated)
Experimental: (§4) Exo activity was assayed as described by Low et al. (1976), supra, using denatured calf-thymus DNA incorporating [^3 H]-dTMP residues at the 3'-OH ends.
(§5) TMAU at 50 μM inhibited ssDNA digestion by about 70% in the presence of dsDNA. When the latter mixture was supplemented with 500 μM dGTP, the specific antagonist of TMAU-induced sequestration inhibition was reduced to a level of <3%.

[8] = test system: mammalian cells; details: cited from earlier work
[9] = molecular target: T4, M. pulmonis peak A pol activity (Pol III) (Bacillus subtilis, UniProt P13267); test: DNA polymerase activity assay, M. pulmonis peak A pol (Bio-Rex 70); assay type: biochemical; details: 200 μM HPUra
T4 construct: we prepared a crude extract of M. pulmonis; endogenous in cells; host or cells: M. pulmonis (strain KD735-15 was the strain propagated)
Experimental: as §1, §2, §3

[10] = test system: M. pulmonis peak B pol activity; test: DNA polymerase activity assay, M. pulmonis peak B pol (Bio-Rex 70); assay type: biochemical; details: 200 μM HPUra
Experimental: as §1, §2
To characterize the HPUra-sensitive pol activity further, we purified it using a five-step scheme summarized in Table 1 and described in the Experimental procedures. […]

[11] = test system: T5, exo activity of peak A pol; test: Exo activity of peak A enzyme on 3'-labelled ssDNA; assay type: biochemical, M. pulmonis; details: TMAU 50 μM, dsDNA, plus 500 μM dATP
T5 construct: we prepared a crude extract of M. pulmonis; endogenous in cells; host or cells: M. pulmonis (strain KD735-15 was the strain propagated)
Experimental: as §4, §5

[12] = nucleotide 500 μM, no TMAU, sequestering conditions with dsDNA

T2 sequence (P13267 whole entry): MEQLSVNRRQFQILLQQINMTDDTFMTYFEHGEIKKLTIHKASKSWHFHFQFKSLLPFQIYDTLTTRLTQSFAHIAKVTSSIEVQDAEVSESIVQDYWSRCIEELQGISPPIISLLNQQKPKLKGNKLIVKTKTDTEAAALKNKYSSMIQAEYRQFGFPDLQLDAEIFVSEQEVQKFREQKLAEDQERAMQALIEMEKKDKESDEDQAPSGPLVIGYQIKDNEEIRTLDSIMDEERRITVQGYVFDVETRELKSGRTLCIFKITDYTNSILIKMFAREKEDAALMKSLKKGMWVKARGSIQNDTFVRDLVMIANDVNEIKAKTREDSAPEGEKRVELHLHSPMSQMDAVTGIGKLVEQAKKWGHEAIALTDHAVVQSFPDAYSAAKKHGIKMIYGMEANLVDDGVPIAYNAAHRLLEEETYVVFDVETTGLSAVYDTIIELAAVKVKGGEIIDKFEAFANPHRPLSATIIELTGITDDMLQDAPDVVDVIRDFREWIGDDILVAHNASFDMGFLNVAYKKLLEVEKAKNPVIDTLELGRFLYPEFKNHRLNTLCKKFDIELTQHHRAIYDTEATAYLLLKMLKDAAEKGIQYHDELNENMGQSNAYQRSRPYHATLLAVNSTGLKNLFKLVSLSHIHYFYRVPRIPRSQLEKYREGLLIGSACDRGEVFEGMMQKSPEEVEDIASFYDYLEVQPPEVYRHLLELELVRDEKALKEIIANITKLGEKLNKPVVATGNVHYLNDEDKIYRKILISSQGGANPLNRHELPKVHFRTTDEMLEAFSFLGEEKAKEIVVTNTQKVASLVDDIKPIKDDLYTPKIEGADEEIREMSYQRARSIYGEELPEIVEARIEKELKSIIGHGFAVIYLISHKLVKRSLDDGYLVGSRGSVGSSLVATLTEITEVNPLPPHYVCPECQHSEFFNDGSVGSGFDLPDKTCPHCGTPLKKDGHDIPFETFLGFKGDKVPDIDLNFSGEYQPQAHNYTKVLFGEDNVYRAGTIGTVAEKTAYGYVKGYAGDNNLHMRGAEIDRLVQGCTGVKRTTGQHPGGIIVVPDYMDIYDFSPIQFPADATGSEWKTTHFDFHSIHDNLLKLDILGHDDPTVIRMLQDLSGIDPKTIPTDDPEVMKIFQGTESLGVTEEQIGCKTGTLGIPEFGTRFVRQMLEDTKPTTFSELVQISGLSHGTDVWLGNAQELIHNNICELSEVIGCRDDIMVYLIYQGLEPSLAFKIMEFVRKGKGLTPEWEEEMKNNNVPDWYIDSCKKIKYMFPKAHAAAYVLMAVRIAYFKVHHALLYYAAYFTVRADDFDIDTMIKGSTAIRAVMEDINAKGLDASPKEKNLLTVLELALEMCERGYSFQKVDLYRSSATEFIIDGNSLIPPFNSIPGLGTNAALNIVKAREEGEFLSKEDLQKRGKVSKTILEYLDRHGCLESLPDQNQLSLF
T3 sequence (P13267 whole entry): as above
T1 sequence (P13267 whole entry): as above
T4 sequence (P13267 whole entry): as above
T5 sequence (P13267 whole entry): as above

Row | SMILES | MIC [1] [µg/mL] | MIC [2] [µg/mL] | MIC [3] [µg/mL] | IC50 [5] [µM] | IC50 [6] [µM] | other results
1 | O=c1cc(N=Nc2cccc(Cl)c2)[nH]c(=O)[nH]1 [MCPUra, 6-(m-chlorophenylazo)uracil] | – | – | – | 17 | 48 | IC99 [4]: 12.5 µM
2 | CCn1c(=O)cc(Nc2ccc3c(c2)CCC3)[nH]c1=O [C2 H5] | 4 (≈ 14.7 µM) | 0.5 (≈ 1.84 µM) | 1 (≈ 3.69 µM) | – | – | –
3 | Nc1ncnc2c1ncn2[C@H]1C[C@H](O)[C@@H](COP(=O)(O)OP(=O)(O)OP(=O)(O)O)O1 [dATP] | – | – | – | – | – | Exo Activity (%) [7, 12]: 101%
4 | Cn1c(=O)cc(Nc2ccc3c(c2)CCC3)[nH]c1=O [CH3] | 7 (≈ 27.2 µM) | – | – | – | – | –
5 | COc1cccc(OC)c1C(=O)N[C@@H]1C(=O)N2[C@@H]1SC(C)(C)[C@@H]2C(=O)O [Methicillin] | – | 128 (≈ 336 µM) | 1 (≈ 2.63 µM) | – | – | –
6 | O=c1cc(N=Nc2ccc(O)cc2)[nH]c(=O)[nH]1 [HPUra, 6-(p-Hydroxyphenylazo)-uracil] | – | – | – | 14 | 11 | Toxicity in mammalian cells [8]: low toxicity; Inhibition of colony formation ([4]; 200 μM): completely inhibited colony formation; Sensitivity of peak A pol activity [9]: drug-sensitive; Sensitivity of peak B pol activity [10]: insensitive
7 | Nc1nc2c(ncn2[C@H]2C[C@H](O)[C@@H](COP(=O)(O)OP(=O)(O)OP(=O)(O)O)O2)c(=O)[nH]1 [dGTP] | – | – | – | – | – | Exo Activity (%) [7, 12]: 103%
8 | Oc1cc(N=Nc2ccc(Cl)cc2)nc(O)n1 [PCPUra, 6-(p-chlorophenylazo) uracil] | – | – | – | 31 | 57 | IC99 [4]: < 6.25 µM

Second part, led by results:

Row | MIC [1] [µg/mL] | MIC [2] [µg/mL] | MIC [3] [µg/mL] | IC50 [5] [µM] | IC50 [6] [µM] | SMILES | other results
9 | 1.8 (≈ 6.01 µM) | 0.5 (≈ 1.67 µM) | > 128 | – | – | CCCCn1c(=O)cc(Nc2ccc3c(c2)CCC3)[nH]c1=O [nC4 H9] | –
10 | 3.5 (≈ 12.3 µM) | – | – | – | – | CCCn1c(=O)cc(Nc2ccc3c(c2)CCC3)[nH]c1=O [nC3 H7] | –
11 | – | – | – | 20 | 34 | O=c1cc(N=Nc2ccccc2)[nH]c(=O)[nH]1 [PUra, 6-(phenylazo)uracil] | IC99 [4]: 6.25 to 12.5 µM
12 | 23 (≈ 94.5 µM) | 4 (≈ 16.4 µM) | 8 (≈ 32.9 µM) | 11 | 8 | O=c1cc(Nc2ccc3c(c2)CCC3)[nH]c(=O)[nH]1 [TMAU, 6-(3',4'-trimethylanilino) uracil] | Effect of dATP on level of inhibition of ssDNA digestion [11]: no significant effect; Exo Activity (%) ([7]; TMAU 50 μM + dGTP 500 μM, sequestering conditions with dsDNA): 98%; activity at 50 µM ([7]; TMAU 50 μM alone, sequestering conditions with dsDNA): 31%; inhibition at 50 µM ([7]; TMAU 50 μM, dsDNA, plus 500 μM dGTP): < 3%; inhibition at 50 µM ([7]; TMAU 50 μM, in the presence of dsDNA): ~70%; Exo activity on ssDNA, sensitivity ([7]; TMAU 50 μM, ssDNA without dsDNA, preliminary, results not shown): resistant
